Test results published in the NIST ThermoML archive (doi:10.1016/j.fluid.2007.08.010).
Numbers after ± are expanded uncertainties.

Experiment: xn = mol fraction of the nth substance listed
Conditions: Liquid, Falling or rolling sphere viscometry

CCCCCCCCCCCCCC [tetradecane] + c1ccccc1
viscosity [mPa·s]
Conditions | 690 kPa | 5000 kPa | 10000 kPa | 20000 kPa | 30000 kPa | 40000 kPa | 50000 kPa | 60000 kPa
313.2 K, x2 = 0.179 | 1.393 ± 0.057 | 1.461 ± 0.06 | 1.538 ± 0.063 | 1.695 ± 0.069 | 1.86 ± 0.076 | 2.036 ± 0.083 | 2.224 ± 0.091 | 2.434 ± 0.1
313.2 K, x2 = 0.436 | 1.103 ± 0.045 | 1.159 ± 0.047 | 1.223 ± 0.05 | 1.347 ± 0.055 | 1.473 ± 0.06 | 1.6 ± 0.065 | 1.729 ± 0.071 | 1.866 ± 0.076
313.2 K, x2 = 0.602 | 0.905 ± 0.037 | 0.955 ± 0.039 | 1.011 ± 0.041 | 1.118 ± 0.046 | 1.225 ± 0.05 | 1.329 ± 0.054 | 1.432 ± 0.058 | 1.535 ± 0.063
313.2 K, x2 = 0.798 | 0.679 ± 0.028 | 0.712 ± 0.029 | 0.753 ± 0.031 | 0.835 ± 0.034 | 0.916 ± 0.037 | 1 ± 0.041 | 1.081 ± 0.044 | 1.16 ± 0.047
333.2 K, x2 = 0.179 | 1.045 ± 0.043 | 1.098 ± 0.045 | 1.157 ± 0.047 | 1.273 ± 0.052 | 1.389 ± 0.057 | 1.515 ± 0.062 | 1.657 ± 0.068 | 1.846 ± 0.076
333.2 K, x2 = 0.436 | 0.838 ± 0.034 | 0.884 ± 0.036 | 0.935 ± 0.038 | 1.037 ± 0.042 | 1.135 ± 0.046 | 1.228 ± 0.05 | 1.319 ± 0.054 | 1.421 ± 0.058
333.2 K, x2 = 0.602 | 0.688 ± 0.028 | 0.728 ± 0.03 | 0.775 ± 0.032 | 0.862 ± 0.035 | 0.946 ± 0.039 | 1.032 ± 0.042 | 1.115 ± 0.045 | 1.216 ± 0.05
333.2 K, x2 = 0.798 | 0.528 ± 0.022 | 0.557 ± 0.023 | 0.592 ± 0.024 | 0.661 ± 0.027 | 0.73 ± 0.03 | 0.797 ± 0.032 | 0.863 ± 0.035 | 0.927 ± 0.038
353.2 K, x2 = 0.179 | 0.819 ± 0.034 | 0.855 ± 0.035 | 0.904 ± 0.037 | 0.996 ± 0.041 | 1.08 ± 0.044 | 1.168 ± 0.048 | 1.278 ± 0.052 | 1.391 ± 0.057
353.2 K, x2 = 0.436 | 0.614 ± 0.025 | 0.662 ± 0.027 | 0.705 ± 0.029 | 0.793 ± 0.032 | 0.883 ± 0.036 | 0.956 ± 0.039 | 1.032 ± 0.042 | 1.116 ± 0.046
353.2 K, x2 = 0.602 | 0.537 ± 0.022 | 0.566 ± 0.023 | 0.601 ± 0.025 | 0.668 ± 0.027 | 0.739 ± 0.03 | 0.809 ± 0.033 | 0.878 ± 0.036 | 0.959 ± 0.039
353.2 K, x2 = 0.798 | 0.421 ± 0.017 | 0.443 ± 0.018 | 0.469 ± 0.019 | 0.523 ± 0.021 | 0.578 ± 0.024 | 0.634 ± 0.026 | 0.69 ± 0.028 | 0.745 ± 0.03
373.2 K, x2 = 0.179 | 0.596 ± 0.024 | 0.635 ± 0.026 | 0.678 ± 0.028 | 0.765 ± 0.031 | 0.849 ± 0.035 | 0.926 ± 0.038 | 1.001 ± 0.041 | 1.07 ± 0.044
373.2 K, x2 = 0.436 | 0.485 ± 0.02 | 0.515 ± 0.021 | 0.549 ± 0.022 | 0.62 ± 0.025 | 0.688 ± 0.028 | 0.753 ± 0.031 | 0.819 ± 0.033 | 0.879 ± 0.036
373.2 K, x2 = 0.602 | 0.43 ± 0.018 | 0.452 ± 0.018 | 0.477 ± 0.019 | 0.533 ± 0.022 | 0.59 ± 0.024 | 0.646 ± 0.026 | 0.704 ± 0.029 | 0.761 ± 0.031
373.2 K, x2 = 0.798 | 0.356 ± 0.015 | 0.371 ± 0.015 | 0.389 ± 0.016 | 0.427 ± 0.017 | 0.467 ± 0.019 | 0.509 ± 0.021 | 0.553 ± 0.023 | 0.598 ± 0.024
393.2 K, x2 = 0.179 | 0.466 ± 0.019 | 0.495 ± 0.02 | 0.531 ± 0.022 | 0.601 ± 0.025 | 0.67 ± 0.027 | 0.738 ± 0.03 | 0.804 ± 0.033 | 0.868 ± 0.036
393.2 K, x2 = 0.436 | 0.394 ± 0.016 | 0.419 ± 0.017 | 0.445 ± 0.018 | 0.496 ± 0.02 | 0.554 ± 0.023 | 0.61 ± 0.025 | 0.662 ± 0.027 | 0.717 ± 0.029
393.2 K, x2 = 0.602 | 0.347 ± 0.014 | 0.368 ± 0.015 | 0.39 ± 0.016 | 0.436 ± 0.018 | 0.479 ± 0.02 | 0.524 ± 0.021 | 0.565 ± 0.023 | 0.604 ± 0.025
393.2 K, x2 = 0.798 | 0.307 ± 0.013 | 0.32 ± 0.013 | 0.336 ± 0.014 | 0.367 ± 0.015 | 0.398 ± 0.016 | 0.432 ± 0.018 | 0.466 ± 0.019 | 0.499 ± 0.02
